ChEMBL document CHEMBL4673334, “In Vivo Biological Evaluation of a Synthetic Royleanone Derivative as a Promising Fast-Acting Trypanocidal Agent by Inducing Mitochondrial-Dependent Necrosis” (J Nat Prod, 2020)
Activity calls are given as the source filed them. The calls are words filed in the database; no cut-off is given here.

Assays:
[1] = tested on: Trypanosoma cruzi; assay: Antitrypanosomal activity against Trypanosoma cruzi IRHOD/CO/2008/SN3 (DTU I) epimastigote form assessed as parasite growth inhibition incubated for 48 hrs by resazurin dye based assay; type: functional, organism-based
[2] = tested on: Vero; assay: Cytotoxicity against African green monkey Vero cells assessed as reduction in cell viability after 48 hrs by resazurin dye based assay; conditions: Chlorocebus sabaeus
[3] = tested on: Trypanosoma cruzi; assay: Antitrypanosomal activity against Trypanosoma cruzi TINF/CH/1956/Tulahuen (DTU VI) epimastigote form assessed as parasite growth inhibition incubated for 48 hrs by resazurin dye based assay; type: functional, organism-based
[4] = tested on: Trypanosoma cruzi; assay: Antitrypanosomal activity against Trypanosoma cruzi MHOM/Pe/2011/Arequipa(DTU V) epimastigote form assessed as parasite growth inhibition incubated for 48 hrs by resazurin dye based assay; type: functional, organism-based
[5] = tested on: Trypanosoma cruzi; assay: Inhibition of mitochondrial membrane potential in Trypanosoma cruzi MHOM/Pe/2011/Arequipa(DTU V) epimastigote form at IC25 concentration after 72 hrs by Rho (FITC-A) staining based flow cytometric analysis; type: functional
[6] = tested on: Trypanosoma cruzi; assay: Antitrypanosomal activity against Trypanosoma cruzi MHOM/Pe/2011/Arequipa(DTU V) amastigote form infected in BALB/c mouse assessed as reduction in parasitaemia at 20 mg/kg, po for 5 days and measured after 55 days post infection; type: functional, organism-based; conditions: time 5.0 day
[7] = tested on: Trypanosoma cruzi; assay: Antitrypanosomal activity against Trypanosoma cruzi MHOM/Pe/2011/Arequipa(DTU V) amastigote form infected in BALB/c mouse assessed as reactivation parasitaemia at 20 mg/kg, po administered for 5 days starting at 100 days post infection and measured up to 145 days post infection relative to control; type: functional; conditions: time 5 day
[8] = Toxicity in BALB/c mouse infected with Trypanosomal Trypanosoma cruzi MHOM/Pe/2011/Arequipa(DTU V) assessed as effect on total bilirubin level at 20 mg/kg, po administered for 5 days starting at 9 days post infection and measured after 2 days post treatment; type: organism-based; conditions: in vivo, 120 h, time 5 day
[9] = tested on: Trypanosoma cruzi; assay: Antitrypanosomal activity against Trypanosoma cruzi MHOM/Pe/2011/Arequipa(DTU V) amastigote form infected in Vero cells assessed as parasite growth inhibition at 50 uM incubated for 72 hrs by Giemsa-staining based assay relative to control; type: functional
[10] = Toxicity in BALB/c mouse infected with Trypanosomal Trypanosoma cruzi MHOM/Pe/2011/Arequipa(DTU V) assessed as effect on urea level at 20 mg/kg, po administered for 5 days starting at 9 days post infection and measured after 2 days post treatment; type: organism-based; conditions: in vivo, 120 h, time 5 day
[11] = Toxicity in BALB/c mouse infected with Trypanosomal Trypanosoma cruzi MHOM/Pe/2011/Arequipa(DTU V) assessed as reduction in survival at 20 mg/kg, po administered for 5 days starting at 9 days post infection and measured up to 145 days post infection; type: organism-based; conditions: in vivo, 120 h, time 5 day
[12] = Toxicity in BALB/c mouse infected with Trypanosomal Trypanosoma cruzi MHOM/Pe/2011/Arequipa(DTU V) assessed as effect on LDH level at 20 mg/kg, po administered for 5 days starting at 100 days post infection and measured after 2 days post treatment; type: organism-based; conditions: in vivo, 120 h, time 5 day
[13] = Toxicity in BALB/c mouse infected with Trypanosomal Trypanosoma cruzi MHOM/Pe/2011/Arequipa(DTU V) assessed as reduction in weight at 20 mg/kg, po administered for 5 days starting at 9 days post infection and measured up to 145 days post infection; type: organism-based; conditions: in vivo, 120 h, time 5 day
[14] = Toxicity in BALB/c mouse infected with Trypanosomal Trypanosoma cruzi MHOM/Pe/2011/Arequipa(DTU V) assessed as effect on AST/GOT level at 20 mg/kg, po administered for 5 days starting at 9 days post infection and measured after 2 days post treatment; type: organism-based; conditions: in vivo, 120 h, time 5 day
[15] = Toxicity in BALB/c mouse infected with Trypanosomal Trypanosoma cruzi MHOM/Pe/2011/Arequipa(DTU V) assessed as effect on total bilirubin level at 20 mg/kg, po administered for 5 days starting at 100 days post infection and measured after 2 days post treatment; type: organism-based; conditions: in vivo, 120 h, time 5 day
[16] = Toxicity in BALB/c mouse infected with Trypanosomal Trypanosoma cruzi MHOM/Pe/2011/Arequipa(DTU V) assessed as effect on CK-MB level at 20 mg/kg, po administered for 5 days starting at 100 days post infection and measured after 2 days post treatment; type: organism-based; conditions: in vivo, 120 h, time 5 day
[17] = Toxicity in BALB/c mouse infected with Trypanosomal Trypanosoma cruzi MHOM/Pe/2011/Arequipa(DTU V) assessed as effect on ALT/GPT level at 20 mg/kg, po administered for 5 days starting at 9 days post infection and measured after 2 days post treatment; type: organism-based; conditions: in vivo, 120 h, time 5 day
[18] = Toxicity in BALB/c mouse infected with Trypanosomal Trypanosoma cruzi MHOM/Pe/2011/Arequipa(DTU V) assessed as effect on uric acid level at 20 mg/kg, po administered for 5 days starting at 100 days post infection and measured after 2 days post treatment; type: organism-based; conditions: in vivo, 120 h, time 5 day
[19] = Toxicity in BALB/c mouse infected with Trypanosomal Trypanosoma cruzi MHOM/Pe/2011/Arequipa(DTU V) assessed as effect on uric acid level at 20 mg/kg, po administered for 5 days starting at 9 days post infection and measured after 2 days post treatment; type: organism-based; conditions: in vivo, 120 h, time 5 day
[20] = Toxicity in BALB/c mouse infected with Trypanosomal Trypanosoma cruzi MHOM/Pe/2011/Arequipa(DTU V) assessed as effect on […] level at 20 mg/kg, po administered for 5 days starting at 100 days post infection and measured after 2 days post treatment; type: organism-based; conditions: in vivo, 120 h, time 5 day
[21] = tested on: Trypanosoma cruzi; assay: (§1) Antitrypanosomal activity against Trypanosoma cruzi MHOM/Pe/2011/Arequipa(DTU V) amastigote form infected in BALB/c mouse assessed as parasite free organ tissue ratio at 20 mg/kg, po administered for 5 days starting at 9 days post infection and measured up to 145 days post infection by PCR analysis relative to control; type: functional; conditions: time 5 day
[22] = Toxicity in BALB/c mouse infected with Trypanosomal Trypanosoma cruzi MHOM/Pe/2011/Arequipa(DTU V) assessed as effect on ALP level at 20 mg/kg, po administered for 5 days starting at 100 days post infection and measured after 2 days post treatment; type: organism-based; conditions: in vivo, 120 h, time 5 day
[23] = Toxicity in BALB/c mouse infected with Trypanosomal Trypanosoma cruzi MHOM/Pe/2011/Arequipa(DTU V) assessed as effect on urea level at 20 mg/kg, po administered for 5 days starting at 100 days post infection and measured after 2 days post treatment; type: organism-based; conditions: in vivo, 120 h, time 5 day
[24] = Toxicity in BALB/c mouse infected with Trypanosomal Trypanosoma cruzi MHOM/Pe/2011/Arequipa(DTU V) assessed as effect on LDH level at 20 mg/kg, po administered for 5 days starting at 9 days post infection and measured after 2 days post treatment; type: organism-based; conditions: in vivo, 120 h, time 5 day
[25] = Toxicity in BALB/c mouse infected with Trypanosomal Trypanosoma cruzi MHOM/Pe/2011/Arequipa(DTU V) assessed as reduction in survival at 20 mg/kg, po administered for 5 days starting at 100 days post infection and measured up to 145 days post infection; type: organism-based; conditions: in vivo, 120 h, time 5 day
[26] = tested on: Trypanosoma cruzi; assay: as §1, with “100” for “9”; type: functional; conditions: time 5 day
[27] = Toxicity in BALB/c mouse infected with Trypanosomal Trypanosoma cruzi MHOM/Pe/2011/Arequipa(DTU V) assessed as effect on CK-MB level at 20 mg/kg, po administered for 5 days starting at 9 days post infection and measured after 2 days post treatment; type: organism-based; conditions: in vivo, 120 h, time 5 day
[28] = Toxicity in BALB/c mouse infected with Trypanosomal Trypanosoma cruzi MHOM/Pe/2011/Arequipa(DTU V) assessed as effect on ALP level at 20 mg/kg, po administered for 5 days starting at 9 days post infection and measured after 2 days post treatment; type: organism-based; conditions: in vivo, 120 h, time 5 day
[29] = Toxicity in BALB/c mouse infected with Trypanosomal Trypanosoma cruzi MHOM/Pe/2011/Arequipa(DTU V) assessed as effect on ALT/GPT level at 20 mg/kg, po administered for 5 days starting at 100 days post infection and measured after 2 days post treatment; type: organism-based; conditions: in vivo, 120 h, time 5 day
[30] = tested on: Trypanosoma cruzi; assay: Inhibition of nucleic acid level in Trypanosoma cruzi MHOM/Pe/2011/Arequipa(DTU V) epimastigote form at IC25 concentration after 72 hrs by Rho (FITC-A) staining based flow cytometric analysis; type: functional
[31] = Toxicity in BALB/c mouse infected with Trypanosomal Trypanosoma cruzi MHOM/Pe/2011/Arequipa(DTU V) assessed as reduction in weight at 20 mg/kg, po administered for 5 days starting at 100 days post infection and measured up to 145 days post infection; type: organism-based; conditions: in vivo, 120 h, time 5 day
[32] = tested on: Trypanosoma cruzi; assay: Antitrypanosomal activity against Trypanosoma cruzi MHOM/Pe/2011/Arequipa(DTU V) amastigote form infected in BALB/c mouse assessed as reactivation parasitaemia at 20 mg/kg, po administered for 5 days starting at 9 days post infection and measured up to 145 days post infection relative to control; type: functional; conditions: time 5 day

## CC(C)c1cc2c(cc1O)[C@@]1(C)CCC[C@@]3(C)CO[C@@H](C2=O)[C@@H]31
[1]
  IC50: 60.8 µM
[2]
  IC50: 952 µM
[3]
  IC50: 62.8 µM
[4]
  IC50: 51 µM

## CC(C)c1cc2c(cc1O)[C@@]1(C)CCC[C@@]3(C)CO[C@@H]([C@@H]2O)[C@@H]31
[1]
  IC50: 36.7 µM
[2]
  IC50: 763 µM
[3]
  IC50: 34.6 µM
[4]
  IC50: 31.1 µM

## CC(C)c1cc2c(cc1O)[C@@]1(C)CCC[C@@](C)(C=O)[C@@H]1CC2 [18-OXOFERRUGINOL]
[1]
  IC50: 63 µM
[2]
  IC50: 106 µM
[3]
  IC50: 48.7 µM
[4]
  IC50: 59.5 µM

## COC(=O)[C@]1(C)CCC[C@]2(C)c3ccc(C(C)C)c(O)c3CC[C@@H]12
[1]
  IC50: 103 µM
[2]
  IC50: 102 µM
[3]
  IC50: 71.2 µM
[4]
  IC50: 75 µM

## CC(C)C1=CC(=O)C2=C(C=C[C@H]3C(C)(C)CCC[C@]23C)C1=O
[1]
  IC50: 13.5 µM
[2]
  IC50: 26.1 µM
[3]
  IC50: 19.2 µM
[4]
  IC50: 19 µM

## CC(C)C1=CC2=C[C@@H]3OC(=O)[C@]4(C)CCC=C(C2=C(O)C1=O)[C@]34C
[1]
  IC50: 110 µM
[2]
  IC50: 222 µM
[3]
  IC50: 95.3 µM
[4]
  IC50: 75.9 µM

## CC(C)c1cc2c(cc1O)[C@@]1(C)CCCC(C)(C)[C@@]1(O)OC2=O
[1]
  IC50: 91.2 µM
[2]
  IC50: 480 µM
[3]
  IC50: 72.8 µM
[4]
  IC50: 40.5 µM

## O=C(Cn1ccnc1[N+](=O)[O-])NCc1ccccc1 [BENZNIDAZOLE]
[5]
  inhibition: 35.4%
[6]
  Activity: Active
[7]
  Activity: 68.3%
[8]
  Activity: Non-Toxic
[9]
  inhibition at 50 µM: 100%
[10]
  Activity: Non-Toxic
[11]
  Activity: Non-Toxic
[12]
  Activity: Non-Toxic
[13]
  Activity: Non-Toxic
[2]
  IC50: 80.4 µM
[14]
  Activity: Non-Toxic
[15]
  Activity: Non-Toxic
[16]
  Activity: Non-Toxic
[17]
  Activity: Non-Toxic
[18]
  Activity: Non-Toxic
[19]
  Activity: Non-Toxic
[20]
  Activity: Non-Toxic
[21]
  Activity: 28.5%
[22]
  Activity: Non-Toxic
[23]
  Activity: Non-Toxic
[24]
  Activity: Non-Toxic
[25]
  Activity: Non-Toxic
[26]
  Activity: 42.9%
[27]
  Activity: Non-Toxic
[28]
  Activity: Non-Toxic
[29]
  Activity: Non-Toxic
[30]
  inhibition: 22.4%
[31]
  Activity: Non-Toxic
[32]
  Activity: 81.5%
